The results in this text go back to US6602888B2, “Use of α1C specific compounds to treat benign prostatic hyperplasia” (Synaptic Pharmaceutical Corporation, priority 1992, dated 2003).

The target in assay [1] is T1, human α1C adrenergic receptor (Homo sapiens, UniProt P35348).
T1 construct: The entire coding region of α1C (1401 bp); expressed in transfected cells
T1 sequence (P35348 1-466): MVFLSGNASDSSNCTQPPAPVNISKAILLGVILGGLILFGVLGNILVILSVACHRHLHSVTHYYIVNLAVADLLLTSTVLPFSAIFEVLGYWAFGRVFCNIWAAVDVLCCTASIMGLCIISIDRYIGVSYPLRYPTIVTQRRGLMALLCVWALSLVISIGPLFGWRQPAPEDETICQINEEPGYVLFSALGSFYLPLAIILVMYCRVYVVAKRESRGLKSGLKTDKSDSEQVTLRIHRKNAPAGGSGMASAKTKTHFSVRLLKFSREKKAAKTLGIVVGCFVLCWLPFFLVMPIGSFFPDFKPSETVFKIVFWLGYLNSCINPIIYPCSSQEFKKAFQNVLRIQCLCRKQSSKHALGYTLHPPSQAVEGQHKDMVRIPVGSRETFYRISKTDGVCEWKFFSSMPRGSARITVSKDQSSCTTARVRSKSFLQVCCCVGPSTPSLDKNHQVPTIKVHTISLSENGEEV
In words: Radioligand binding, [3H]prazosin, cloned human α1C adrenergic receptor. From the text: The construct involved ligating three partial overlapping fragments: a 5′ 0.6 kb HincII genomic clone, a central 1.8 EcoRI hippocampal cDNA clone, and a 3′ 0.6 Kb PstI genomic clone. The hippocampal cDNA fragment overlaps with the 5′ and 3′ genomic clones so that the HincII and PstI sites at the 5′ and 3′ ends of the cDNA clone, respectively, were utilized for ligation. This full-length clone was cloned into the KpnI site of the expression vector, using the 5′ and 3′ KpnI sites of the fragment, derived from vector (i.e., pBluescript) and 3′-untranslated sequences, respectively. Stable cell lines were selected as described above.

In assay [2] the target is T2, human α2A adrenergic receptor (Homo sapiens, UniProt P08913).
T2 sequence (P08913 1-465): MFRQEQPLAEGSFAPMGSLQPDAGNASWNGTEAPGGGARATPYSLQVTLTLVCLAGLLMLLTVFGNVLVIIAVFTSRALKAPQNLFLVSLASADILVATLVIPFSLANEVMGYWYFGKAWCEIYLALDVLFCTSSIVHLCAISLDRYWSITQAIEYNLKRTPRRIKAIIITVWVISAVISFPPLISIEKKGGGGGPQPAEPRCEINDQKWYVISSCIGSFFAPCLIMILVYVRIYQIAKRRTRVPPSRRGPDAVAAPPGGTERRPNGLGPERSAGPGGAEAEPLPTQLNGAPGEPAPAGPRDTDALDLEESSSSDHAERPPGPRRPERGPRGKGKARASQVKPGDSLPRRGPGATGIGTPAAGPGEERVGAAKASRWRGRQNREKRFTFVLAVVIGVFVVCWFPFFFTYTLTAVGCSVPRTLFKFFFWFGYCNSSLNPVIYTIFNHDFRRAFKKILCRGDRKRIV
In words: Competition binding, [3H]rauwolscine, α2A receptor. On the procedure:
(§1) To determine the potency of α1 antagonists at the α2 receptors, LM(tk−) cell lines stably transfected with the genes encoding the α2A, α2B, and α2C receptors were used. The cell line expressing the α2A receptor is designated L-α2A, and was deposited on Nov. […] The cell line expressing the α2B receptor is designated L-NGC-α2B, and was deposited on Oct. […] The cell line expressing the α2C receptor is designated L-α2C, and was deposited on Nov. […] Cell lysates were prepared as described above (see Radioligand Binding Assays), and suspended in 25 mM glycylglycine buffer (pH 7.6 at room temperature).

In assay [3] the target is T3, human α2C adrenergic receptor (Homo sapiens, UniProt P18825).
T3 sequence (P18825 1-462): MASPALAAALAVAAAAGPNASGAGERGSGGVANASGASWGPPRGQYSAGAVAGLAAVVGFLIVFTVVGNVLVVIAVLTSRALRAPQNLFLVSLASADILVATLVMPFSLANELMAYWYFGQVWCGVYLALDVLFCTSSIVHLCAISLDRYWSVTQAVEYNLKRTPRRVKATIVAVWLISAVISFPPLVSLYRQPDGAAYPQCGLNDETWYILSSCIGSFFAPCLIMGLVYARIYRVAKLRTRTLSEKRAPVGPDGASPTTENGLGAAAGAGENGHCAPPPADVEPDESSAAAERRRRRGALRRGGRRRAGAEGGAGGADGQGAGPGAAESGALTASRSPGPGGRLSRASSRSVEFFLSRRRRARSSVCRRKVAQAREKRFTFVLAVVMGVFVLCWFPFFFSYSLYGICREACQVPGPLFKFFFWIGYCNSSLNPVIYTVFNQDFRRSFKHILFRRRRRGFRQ
In words: Competition binding, [3H]rauwolscine, α2C receptor. The following applies: for Ki: read-out: Alpha-2 Adrenergic a2c (pK1) (converted). On the procedure: as §1

Assay [4] concerns the target T4, human histamine H1 receptor (Homo sapiens, UniProt P35367).
T4 construct: host or cells: COS-7, transient, DEAE-dextran
In words: [3H]mepyramine binding, histamine H1 receptor. As to conditions: for Ki: read-out: Histamine H1 (pK1) (converted). From the text:
The coding sequence of the human histamine H1 receptor, homologous to the bovine H1 receptor, was obtained from a human hippocampal cDNA library, and was cloned into the eukaryotic expression vector pCEXV-3. The plasmid DNA for the H1 receptor is designated pcEXV-H1, and was deposited on Nov. […] This construct was transfected into COS-7 cells by the DEAE-dextran method.

For a further assay, the target named is T5, human 5HT2 receptor (Homo sapiens, UniProt P28223).
T5 construct: host or cells: COS-7 (DEAE-dextran); the same paragraph also names a deposited line L-NGC-5HT2
T5 sequence (P28223 whole entry): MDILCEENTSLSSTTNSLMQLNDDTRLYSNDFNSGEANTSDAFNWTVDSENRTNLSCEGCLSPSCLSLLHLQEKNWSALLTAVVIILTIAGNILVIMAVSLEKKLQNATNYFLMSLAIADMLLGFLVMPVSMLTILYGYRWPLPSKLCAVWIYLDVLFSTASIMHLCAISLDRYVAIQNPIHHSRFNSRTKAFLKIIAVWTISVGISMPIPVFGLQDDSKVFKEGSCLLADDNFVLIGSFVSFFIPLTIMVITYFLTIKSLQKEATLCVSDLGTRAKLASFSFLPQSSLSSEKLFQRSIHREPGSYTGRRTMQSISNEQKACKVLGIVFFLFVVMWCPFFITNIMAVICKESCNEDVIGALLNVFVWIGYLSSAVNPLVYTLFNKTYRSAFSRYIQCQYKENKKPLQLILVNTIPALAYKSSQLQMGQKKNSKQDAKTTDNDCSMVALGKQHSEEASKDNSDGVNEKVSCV
Briefly: [3H]ketanserin competition binding, 5HT2 receptor. The following applies: for Ki: read-out: Serotonin 5HT2 (pK1). How it is done:
The coding sequence of the human 5HT2 receptor was obtained from a human brain cortex cDNA library, and cloned into the cloning site of pCEXV-3 eukaryotic expression vector. This construct was transfected into COS-7 cells by the DEAE-dextran method. […] Nonspecific binding was defined by the addition of 10 μM mianserin.

The target in another assay is T6, calcium channels (Rattus norvegicus, UniProt P22002).
T6 construct: from tissue; host or cells: rat cardiac muscle membranes
T6 sequence (P22002 whole entry, other chains not shown): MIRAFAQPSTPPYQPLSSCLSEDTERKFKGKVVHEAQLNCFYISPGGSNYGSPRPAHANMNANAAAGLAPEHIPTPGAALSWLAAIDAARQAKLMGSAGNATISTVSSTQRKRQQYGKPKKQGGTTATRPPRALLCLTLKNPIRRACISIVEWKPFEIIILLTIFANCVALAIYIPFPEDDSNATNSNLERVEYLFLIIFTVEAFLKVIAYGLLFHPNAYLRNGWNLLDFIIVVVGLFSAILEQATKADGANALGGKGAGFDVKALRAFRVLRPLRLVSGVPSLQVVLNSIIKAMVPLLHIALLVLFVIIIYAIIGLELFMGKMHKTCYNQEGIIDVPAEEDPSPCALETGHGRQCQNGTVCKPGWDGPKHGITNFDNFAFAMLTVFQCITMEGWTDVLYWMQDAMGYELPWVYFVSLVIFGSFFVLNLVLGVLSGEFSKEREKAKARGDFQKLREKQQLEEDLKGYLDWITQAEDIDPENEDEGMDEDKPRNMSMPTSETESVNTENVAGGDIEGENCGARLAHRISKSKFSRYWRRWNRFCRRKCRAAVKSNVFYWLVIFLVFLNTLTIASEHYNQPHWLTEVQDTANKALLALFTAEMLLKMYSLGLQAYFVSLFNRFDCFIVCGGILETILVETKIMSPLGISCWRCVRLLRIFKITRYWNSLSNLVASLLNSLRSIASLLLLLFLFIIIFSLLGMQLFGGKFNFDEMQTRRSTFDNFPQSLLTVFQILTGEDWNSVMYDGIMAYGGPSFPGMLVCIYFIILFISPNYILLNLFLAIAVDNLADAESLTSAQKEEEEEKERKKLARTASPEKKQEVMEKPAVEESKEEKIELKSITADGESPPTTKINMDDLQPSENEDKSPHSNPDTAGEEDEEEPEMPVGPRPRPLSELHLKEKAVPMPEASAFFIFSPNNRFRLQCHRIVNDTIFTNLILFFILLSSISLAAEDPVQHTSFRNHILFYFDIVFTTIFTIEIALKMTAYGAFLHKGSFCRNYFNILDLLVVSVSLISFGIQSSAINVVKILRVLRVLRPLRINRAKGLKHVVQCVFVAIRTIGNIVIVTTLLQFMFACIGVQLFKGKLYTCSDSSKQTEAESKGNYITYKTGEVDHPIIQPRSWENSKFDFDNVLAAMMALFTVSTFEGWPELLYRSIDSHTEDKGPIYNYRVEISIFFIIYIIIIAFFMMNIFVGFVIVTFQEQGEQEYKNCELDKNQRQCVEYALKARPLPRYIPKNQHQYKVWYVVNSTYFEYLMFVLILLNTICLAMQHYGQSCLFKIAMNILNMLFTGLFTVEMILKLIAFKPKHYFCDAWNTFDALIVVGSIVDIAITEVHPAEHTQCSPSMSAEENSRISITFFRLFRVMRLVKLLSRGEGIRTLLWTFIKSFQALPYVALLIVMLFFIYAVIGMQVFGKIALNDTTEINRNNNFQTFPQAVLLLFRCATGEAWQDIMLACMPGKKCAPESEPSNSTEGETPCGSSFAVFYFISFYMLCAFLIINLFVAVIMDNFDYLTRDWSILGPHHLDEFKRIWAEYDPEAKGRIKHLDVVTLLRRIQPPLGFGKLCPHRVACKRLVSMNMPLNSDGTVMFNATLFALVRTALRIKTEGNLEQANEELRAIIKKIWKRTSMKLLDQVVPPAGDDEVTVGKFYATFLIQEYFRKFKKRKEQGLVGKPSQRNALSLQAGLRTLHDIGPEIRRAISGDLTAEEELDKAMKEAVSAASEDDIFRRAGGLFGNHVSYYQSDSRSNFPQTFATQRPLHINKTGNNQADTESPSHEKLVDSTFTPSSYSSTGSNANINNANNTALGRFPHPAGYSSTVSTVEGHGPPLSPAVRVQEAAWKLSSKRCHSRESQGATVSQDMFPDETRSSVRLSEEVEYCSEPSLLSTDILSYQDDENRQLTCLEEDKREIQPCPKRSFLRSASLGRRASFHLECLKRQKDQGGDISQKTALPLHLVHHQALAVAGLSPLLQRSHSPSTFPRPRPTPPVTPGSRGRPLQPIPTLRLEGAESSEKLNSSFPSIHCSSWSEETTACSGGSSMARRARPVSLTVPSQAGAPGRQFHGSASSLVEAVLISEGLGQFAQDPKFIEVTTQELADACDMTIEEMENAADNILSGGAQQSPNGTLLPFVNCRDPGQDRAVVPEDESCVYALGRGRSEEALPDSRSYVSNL
T6 sequence (P54290 25-944 partner limits assumed, other chains not shown): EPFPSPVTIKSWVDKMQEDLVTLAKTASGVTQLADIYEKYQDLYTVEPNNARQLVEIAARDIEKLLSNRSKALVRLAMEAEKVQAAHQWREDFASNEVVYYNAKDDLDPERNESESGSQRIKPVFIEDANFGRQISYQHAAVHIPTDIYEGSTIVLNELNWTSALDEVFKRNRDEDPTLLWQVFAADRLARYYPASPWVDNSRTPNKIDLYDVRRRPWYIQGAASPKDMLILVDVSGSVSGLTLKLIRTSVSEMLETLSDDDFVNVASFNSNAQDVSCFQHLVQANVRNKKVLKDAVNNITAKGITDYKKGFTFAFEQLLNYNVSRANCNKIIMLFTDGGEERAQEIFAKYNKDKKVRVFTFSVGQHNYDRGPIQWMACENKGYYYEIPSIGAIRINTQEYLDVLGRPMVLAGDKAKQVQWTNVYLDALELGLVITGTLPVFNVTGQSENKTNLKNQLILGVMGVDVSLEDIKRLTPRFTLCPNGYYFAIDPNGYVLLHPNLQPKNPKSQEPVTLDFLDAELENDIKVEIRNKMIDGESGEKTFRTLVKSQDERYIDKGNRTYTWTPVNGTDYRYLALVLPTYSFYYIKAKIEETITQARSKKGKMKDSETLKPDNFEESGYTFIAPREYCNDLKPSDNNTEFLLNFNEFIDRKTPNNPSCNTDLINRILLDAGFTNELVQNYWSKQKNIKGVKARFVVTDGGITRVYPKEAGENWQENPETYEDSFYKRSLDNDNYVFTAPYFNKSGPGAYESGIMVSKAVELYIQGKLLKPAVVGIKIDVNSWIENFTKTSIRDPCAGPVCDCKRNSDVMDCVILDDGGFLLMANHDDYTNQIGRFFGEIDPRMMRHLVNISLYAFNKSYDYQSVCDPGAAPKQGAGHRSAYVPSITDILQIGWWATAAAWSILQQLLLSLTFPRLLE
T6 sequence (P54290 945-1091 partner limits assumed, other chains not shown): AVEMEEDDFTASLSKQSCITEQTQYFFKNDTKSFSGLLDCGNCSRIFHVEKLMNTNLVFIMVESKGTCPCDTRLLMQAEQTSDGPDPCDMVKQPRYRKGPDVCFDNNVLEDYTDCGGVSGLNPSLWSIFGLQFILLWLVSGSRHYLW
Briefly: [3H]nitrendipine competition binding, calcium channels, rat cardiac muscle membranes. As to conditions: for Ki: read-out: Calcium Channel (pK1) (converted). On the procedure:
Briefly, the tissue was minced and homogenized in 50 mM Tris-HCl (pH 7.4) containing 0.1 mM phenylmethylsulfonyl fluoride. The homogenates were centrifuged at 1000 g for 15 minutes, the resulting supernatant was centrifuged at 45,000 g for 15 minutes. The 45,000 g pellet was suspended in buffer and centrifuged a second time.

Where [5] appears, read: Table 2, rat cardiac muscle membranes.
The mark [6] stands for this setting: Table 2, cloned human receptor, read-out: Alpha-2 Adrenergic a2a (pK1) (converted).

Like-named read-outs stand apart in the source and are kept apart here.

T4 sequence (P35367 whole entry): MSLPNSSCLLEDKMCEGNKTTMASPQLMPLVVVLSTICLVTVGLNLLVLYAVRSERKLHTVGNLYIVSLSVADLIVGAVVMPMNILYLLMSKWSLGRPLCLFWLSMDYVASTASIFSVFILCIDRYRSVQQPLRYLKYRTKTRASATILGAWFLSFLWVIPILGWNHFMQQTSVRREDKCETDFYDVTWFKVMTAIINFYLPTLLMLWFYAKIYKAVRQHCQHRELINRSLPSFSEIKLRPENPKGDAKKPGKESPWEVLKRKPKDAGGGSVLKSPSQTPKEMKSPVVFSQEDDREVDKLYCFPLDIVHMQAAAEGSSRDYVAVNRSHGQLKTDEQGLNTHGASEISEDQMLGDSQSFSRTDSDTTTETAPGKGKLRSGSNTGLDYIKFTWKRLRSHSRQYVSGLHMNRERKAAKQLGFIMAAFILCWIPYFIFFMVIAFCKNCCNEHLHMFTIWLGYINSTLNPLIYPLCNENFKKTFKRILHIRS

In the case of “4-fluoro-4-(8-fluoro-1,3,4,5-tetrahydro-2H-pyrido[4,3-b]indol-2-yl)butyrophenone hydrochloride [Compound A-30360, reference compound]”, in assay [1], the “Alpha-1 Adrenergic a1C (pK1)” value came to 8.52 and the “Human Alpha-1 Adrenergic (pK1) a1C” value is listed as 8.52. The “Alpha-2 Adrenergic a2a (pK1)” value in assay [2] is recorded as 6.69. In addition, the “Alpha-2 Adrenergic a2c (pK1)” value in assay [3] worked out at 6.23. The “Histamine H1 (pK1)” value in assay [4] was 6.03. Further, the “Serotonin 5HT2 (pK1)” value on human 5HT2 receptor is given as less than 8.0. Besides, the “Calcium Channel (pK1)” value at calcium channels was 5.26.
Take `COc1ccccc1N1CCN(CCCNc2c(C)c(=O)n(C)c(=O)n2C)CC1` [5-Methyl-Urapidil, 5-methylurapidil, reference compound]: the “Human Alpha-1 Adrenergic (pK1) a1C” value in assay [1] (Table 1, cloned human receptor) is on record as 8.35. For the same molecule, the “Alpha-1 Adrenergic a1C (pK1)” value in assay [1] (Table 2, cloned human receptor) came to 8.35. For the same molecule, the “Alpha-2 Adrenergic a2a (pK1)” value in assay [2] (Table 2, cloned human receptor) worked out at 6.63. For the same molecule, in assay [3] (Table 2, cloned human receptor), the “Alpha-2 Adrenergic a2c (pK1)” value stood at 6.88. Further, the “Histamine H1 (pK1)” value in assay [4] (Table 2, cloned human receptor) was 5.16. At human 5HT2 receptor (Table 2, cloned human receptor), the “Serotonin 5HT2 (pK1)” value was less than 6.0.
For `O=C(CCCN1CCC(NC(=O)c2ccccc2)CC1)c1ccc(Cl)cc1` [Compound 7], the “Human Alpha-1 Adrenergic (pK1) a1C” value in assay [1] (Table 1, cloned human receptor) is listed as 8.42. Also, the “Alpha-1 Adrenergic a1C (pK1)” value in assay [1] (Table 2, cloned human receptor) is reported as 8.42. The “Alpha-2 Adrenergic a2c (pK1)” value in assay [3] (Table 2, cloned human receptor) was determined as 6.09. Also, the “Histamine H1 (pK1)” value in assay [4] (Table 2, cloned human receptor) was found to be 7.59. Moreover, on human 5HT2 receptor (Table 2, cloned human receptor), the “Serotonin 5HT2 (pK1)” value was less than 6.0. The “Calcium Channel (pK1)” value on calcium channels (setting [5]) was 4.79.
As to `COC(=O)C1=C(C)NC(C)=C(C(=O)OCCCN2CCC(c3ccccc3)(c3ccccc3)CC2)C1c1ccc([N+](=O)[O-])cc1.Cl` (stereo not drawn) [Compound 8, 2,6-Dimethyl-4-(4-nitrophenyl)-1,4-dihydropyridine-3,5-dicarboxylic acid [3-(4,4-diphenylpiperidin-1-yl)propyl] ester methyl ester hydrochloride], in assay [1], the “Alpha-1 Adrenergic a1C (pK1)” value is 8.48 and the “Human Alpha-1 Adrenergic (pK1) a1C” value is 8.48. Moreover, the “Alpha-2 Adrenergic a2a (pK1)” value in assay [2] (Table 2, cloned human receptor) was found to be 5.99. Further, in assay [3] (Table 2, cloned human receptor), the “Alpha-2 Adrenergic a2c (pK1)” value was 5.77. Besides, the Ki in assay [4] (Table 2, cloned human receptor) is 214 nM. In addition, the Ki at human 5HT2 receptor (Table 2, cloned human receptor) is more than 100 nM. Besides, the “Calcium Channel (pK1)” value on calcium channels (setting [5]) was determined as 6.87.
As for `O=C(CCCN1CCC(NC(=O)c2ccccc2)CC1)c1ccccc1` [Compound 9], the “Human Alpha-1 Adrenergic (pK1) a1C” value in assay [1] (Table 1, cloned human receptor) was 7.83. In assay [1] (Table 2, cloned human receptor), the “Alpha-1 Adrenergic a1C (pK1)” value is reported as 7.83. Also, the “Alpha-2 Adrenergic a2a (pK1)” value in assay [2] (Table 2, cloned human receptor) was found to be 5.80. For the same molecule, the “Alpha-2 Adrenergic a2c (pK1)” value in assay [3] (Table 2, cloned human receptor) stood at 5.90. Moreover, the “Histamine H1 (pK1)” value in assay [4] (Table 2, cloned human receptor) is 7.29. Further, the “Serotonin 5HT2 (pK1)” value on human 5HT2 receptor (Table 2, cloned human receptor) is on record as less than 7.0. Also, on calcium channels (setting [5]), the “Calcium Channel (pK1)” value is listed as 4.44.
Take `COc1ccc(CCNCC2CCc3ccccc3C2)cc1` (stereo not drawn) [Compound 11, 2-[(4-Methoxyphenethyl)aminomethyl]-1,2,3,4-tetrahydronaphthalene]: the Ki in assay [1] (Table 1, cloned human receptor, read-out: Human Alpha-1 Adrenergic (pK1) a1C (converted)) was 4.37 nM; in assay [2] (setting [6]) it was 138 nM; in assay [3] (Table 2, cloned human receptor) it was 120 nM; in assay [4] (Table 2, cloned human receptor), 1820 nM; at human 5HT2 receptor (Table 2, cloned human receptor), more than 100 nM; at calcium channels (setting [5]), 6610 nM. Also, the “Alpha-1 Adrenergic a1C (pK1)” value in assay [1] (Table 2, cloned human receptor) stood at 8.36. The “binding affinity at α1C receptors relative to binding affinities at other receptors” value in assay [1] (versus the other receptors of Table 2) is on record as “greater than ten-fold higher”.
As for `O=C(NC1CCN(CCc2c[nH]c3ccccc23)CC1)c1ccccc1` [Indoramin, reference compound], the “selectivity for the human α1C receptor relative to the other human α-adrenergic receptors” value in assay [1] (cloned human receptors) is on record as “slightly selective”. Further, the Ki in assay [2] (setting [6]) was 11500 nM; in assay [3] (Table 2, cloned human receptor), 6030 nM; in assay [4] (Table 2, cloned human receptor) it was 42.7 nM; at human 5HT2 receptor (Table 2, cloned human receptor) it was more than 100 nM; at calcium channels (setting [5]), 29500 nM.
On to `C=Cc1sc2ccc(Cl)c3c2c1CN(C)CC3` [SKF-104856, 7-Chloro-2-ethenyl-3,4,5,6-tetrahydro-4-methylthieno[4,3,2-ef][3]benzazepine, reference compound], for which the “Human Alpha-1 Adrenergic (pK1) a1C” value in assay [1] (Table 1, cloned human receptor) was 7.60. Further, the “Alpha-1 Adrenergic a1C (pK1)” value in assay [1] (Table 2, cloned human receptor) was 7.60. For the same molecule, the Ki was 50.1 nM in assay [2]; 25.1 nM in assay [3] (Table 2, cloned human receptor); 2570 nM in assay [4] (Table 2, cloned human receptor); more than 1000 nM on human 5HT2 receptor (Table 2, cloned human receptor); 20900 nM at calcium channels (setting [5]).
